Among the targets are CDK9-Cyclin T1 (Homo sapiens, UniProt P50750); SmMLCK (Homo sapiens, UniProt Q15746); CLK2 (Homo sapiens, UniProt P49760).
What all share (assay): Kinase profiling
What all share (type): biochemical

The target in another assay is T1, TBK1 (Homo sapiens, UniProt Q9UHD2).
T1 sequence (Q9UHD2 1-729): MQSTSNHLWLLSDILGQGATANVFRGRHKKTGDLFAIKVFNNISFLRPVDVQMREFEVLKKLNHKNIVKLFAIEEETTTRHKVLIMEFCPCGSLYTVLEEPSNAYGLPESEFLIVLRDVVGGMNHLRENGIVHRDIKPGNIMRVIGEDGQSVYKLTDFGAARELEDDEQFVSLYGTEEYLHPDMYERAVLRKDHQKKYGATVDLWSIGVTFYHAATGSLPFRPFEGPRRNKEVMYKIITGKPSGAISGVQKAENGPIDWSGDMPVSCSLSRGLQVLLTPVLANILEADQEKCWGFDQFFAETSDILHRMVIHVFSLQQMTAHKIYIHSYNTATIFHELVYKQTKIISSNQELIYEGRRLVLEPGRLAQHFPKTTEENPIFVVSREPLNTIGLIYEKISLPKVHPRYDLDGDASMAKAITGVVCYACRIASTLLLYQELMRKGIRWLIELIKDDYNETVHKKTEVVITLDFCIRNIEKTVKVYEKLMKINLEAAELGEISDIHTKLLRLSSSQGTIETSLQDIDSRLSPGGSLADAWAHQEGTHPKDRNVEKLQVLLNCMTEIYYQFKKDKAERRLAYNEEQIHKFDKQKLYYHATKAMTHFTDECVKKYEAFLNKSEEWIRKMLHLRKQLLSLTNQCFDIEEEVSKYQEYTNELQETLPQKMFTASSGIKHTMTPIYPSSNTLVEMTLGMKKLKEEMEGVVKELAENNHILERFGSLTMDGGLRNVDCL

A further assay has as its target T2, ULK2 (Homo sapiens, UniProt Q8IYT8).
T2 sequence (Q8IYT8 1-1036): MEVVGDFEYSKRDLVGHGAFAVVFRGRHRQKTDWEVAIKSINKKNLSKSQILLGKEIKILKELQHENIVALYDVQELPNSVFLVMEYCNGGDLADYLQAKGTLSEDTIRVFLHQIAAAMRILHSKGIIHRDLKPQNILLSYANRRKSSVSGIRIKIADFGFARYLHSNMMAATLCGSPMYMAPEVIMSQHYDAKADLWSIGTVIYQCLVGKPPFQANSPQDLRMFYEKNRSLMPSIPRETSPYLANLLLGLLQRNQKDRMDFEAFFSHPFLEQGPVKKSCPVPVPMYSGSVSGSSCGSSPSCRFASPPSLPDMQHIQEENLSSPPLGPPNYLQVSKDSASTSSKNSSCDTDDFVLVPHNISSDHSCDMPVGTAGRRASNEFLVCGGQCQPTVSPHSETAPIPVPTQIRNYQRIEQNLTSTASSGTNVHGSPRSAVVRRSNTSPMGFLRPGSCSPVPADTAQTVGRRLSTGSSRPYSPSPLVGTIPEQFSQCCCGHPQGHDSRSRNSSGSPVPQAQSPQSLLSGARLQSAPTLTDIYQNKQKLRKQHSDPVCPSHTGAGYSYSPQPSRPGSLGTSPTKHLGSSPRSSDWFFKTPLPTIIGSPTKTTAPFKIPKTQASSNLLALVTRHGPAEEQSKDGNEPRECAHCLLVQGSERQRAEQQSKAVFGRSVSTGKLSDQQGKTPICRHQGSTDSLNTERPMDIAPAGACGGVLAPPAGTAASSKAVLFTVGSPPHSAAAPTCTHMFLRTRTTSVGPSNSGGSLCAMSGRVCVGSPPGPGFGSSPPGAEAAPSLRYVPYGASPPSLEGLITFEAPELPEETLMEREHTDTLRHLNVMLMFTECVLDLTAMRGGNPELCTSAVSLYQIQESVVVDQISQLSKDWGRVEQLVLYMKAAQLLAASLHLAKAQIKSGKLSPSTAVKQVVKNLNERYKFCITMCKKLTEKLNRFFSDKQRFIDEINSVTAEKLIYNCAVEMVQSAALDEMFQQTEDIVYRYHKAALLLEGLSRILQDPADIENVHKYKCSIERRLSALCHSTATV

A further assay concerns the target T3, IKK beta (Homo sapiens, UniProt O14920).
T3 sequence (O14920 1-756): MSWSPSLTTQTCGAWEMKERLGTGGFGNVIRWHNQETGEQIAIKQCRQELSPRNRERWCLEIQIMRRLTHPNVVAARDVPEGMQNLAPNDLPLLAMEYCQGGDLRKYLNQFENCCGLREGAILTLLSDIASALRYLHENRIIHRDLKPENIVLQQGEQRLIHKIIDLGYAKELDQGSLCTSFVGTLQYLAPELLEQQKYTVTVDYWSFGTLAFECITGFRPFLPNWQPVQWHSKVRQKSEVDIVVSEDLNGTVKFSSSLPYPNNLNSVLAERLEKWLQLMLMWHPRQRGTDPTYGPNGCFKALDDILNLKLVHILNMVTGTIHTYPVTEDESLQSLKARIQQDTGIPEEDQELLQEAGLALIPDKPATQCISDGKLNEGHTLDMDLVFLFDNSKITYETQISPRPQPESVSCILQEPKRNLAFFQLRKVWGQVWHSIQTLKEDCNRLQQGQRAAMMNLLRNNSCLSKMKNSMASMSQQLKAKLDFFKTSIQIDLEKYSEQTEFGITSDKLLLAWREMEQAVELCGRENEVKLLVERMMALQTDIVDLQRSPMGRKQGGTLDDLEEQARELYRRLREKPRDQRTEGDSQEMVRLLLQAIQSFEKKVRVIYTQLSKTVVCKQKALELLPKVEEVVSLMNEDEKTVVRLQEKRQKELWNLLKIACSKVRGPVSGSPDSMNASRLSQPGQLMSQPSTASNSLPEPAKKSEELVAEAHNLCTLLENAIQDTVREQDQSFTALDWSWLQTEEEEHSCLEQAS

From PMC4286194 (Biochemical Journal, 2015) come the findings set out here.

Sequence of CLK2 (P49760 whole entry): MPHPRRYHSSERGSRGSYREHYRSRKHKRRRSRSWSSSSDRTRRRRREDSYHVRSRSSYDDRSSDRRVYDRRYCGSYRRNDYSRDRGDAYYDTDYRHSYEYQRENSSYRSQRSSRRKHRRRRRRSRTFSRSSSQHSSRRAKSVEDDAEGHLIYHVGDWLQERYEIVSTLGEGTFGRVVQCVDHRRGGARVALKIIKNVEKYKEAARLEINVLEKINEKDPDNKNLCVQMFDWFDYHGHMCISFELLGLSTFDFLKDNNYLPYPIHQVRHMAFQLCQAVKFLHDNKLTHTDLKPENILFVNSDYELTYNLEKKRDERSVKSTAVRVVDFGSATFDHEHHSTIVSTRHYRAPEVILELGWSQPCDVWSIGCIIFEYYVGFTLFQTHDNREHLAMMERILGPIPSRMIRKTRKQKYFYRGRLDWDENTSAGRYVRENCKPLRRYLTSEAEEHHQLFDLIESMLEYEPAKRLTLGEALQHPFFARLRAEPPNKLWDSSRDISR
Sequence of CDK9-Cyclin T1 (P50750 whole entry): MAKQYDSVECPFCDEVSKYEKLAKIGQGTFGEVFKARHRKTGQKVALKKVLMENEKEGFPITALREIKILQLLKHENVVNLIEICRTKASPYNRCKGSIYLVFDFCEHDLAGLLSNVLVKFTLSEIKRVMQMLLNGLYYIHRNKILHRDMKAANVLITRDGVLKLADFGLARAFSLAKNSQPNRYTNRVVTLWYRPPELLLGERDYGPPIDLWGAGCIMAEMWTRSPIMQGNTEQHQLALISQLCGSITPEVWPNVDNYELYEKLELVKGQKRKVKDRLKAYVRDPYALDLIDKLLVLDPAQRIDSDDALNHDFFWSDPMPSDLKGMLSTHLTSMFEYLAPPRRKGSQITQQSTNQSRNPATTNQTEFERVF
Sequence of CDK9-Cyclin T1 (O60563 whole entry partner): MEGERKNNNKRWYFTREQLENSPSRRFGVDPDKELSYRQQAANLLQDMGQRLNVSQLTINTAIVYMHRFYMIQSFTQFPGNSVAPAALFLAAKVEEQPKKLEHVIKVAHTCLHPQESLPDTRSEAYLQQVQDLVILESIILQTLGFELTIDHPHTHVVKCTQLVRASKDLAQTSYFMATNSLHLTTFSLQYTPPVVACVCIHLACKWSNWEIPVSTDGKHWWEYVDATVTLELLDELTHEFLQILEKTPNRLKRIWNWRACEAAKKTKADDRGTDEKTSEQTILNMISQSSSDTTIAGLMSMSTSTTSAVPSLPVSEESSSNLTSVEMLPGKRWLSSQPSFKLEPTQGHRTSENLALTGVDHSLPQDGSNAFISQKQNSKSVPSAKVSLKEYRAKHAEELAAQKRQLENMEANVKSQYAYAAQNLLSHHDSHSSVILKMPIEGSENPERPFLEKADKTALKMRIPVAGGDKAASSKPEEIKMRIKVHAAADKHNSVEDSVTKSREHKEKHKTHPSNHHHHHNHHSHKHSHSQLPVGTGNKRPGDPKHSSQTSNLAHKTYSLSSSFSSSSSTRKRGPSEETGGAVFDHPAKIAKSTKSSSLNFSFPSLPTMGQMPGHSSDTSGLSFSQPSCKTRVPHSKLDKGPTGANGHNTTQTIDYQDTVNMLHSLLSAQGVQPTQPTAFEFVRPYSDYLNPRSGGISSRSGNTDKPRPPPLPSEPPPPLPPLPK
Sequence of SmMLCK (Q15746 923-1914): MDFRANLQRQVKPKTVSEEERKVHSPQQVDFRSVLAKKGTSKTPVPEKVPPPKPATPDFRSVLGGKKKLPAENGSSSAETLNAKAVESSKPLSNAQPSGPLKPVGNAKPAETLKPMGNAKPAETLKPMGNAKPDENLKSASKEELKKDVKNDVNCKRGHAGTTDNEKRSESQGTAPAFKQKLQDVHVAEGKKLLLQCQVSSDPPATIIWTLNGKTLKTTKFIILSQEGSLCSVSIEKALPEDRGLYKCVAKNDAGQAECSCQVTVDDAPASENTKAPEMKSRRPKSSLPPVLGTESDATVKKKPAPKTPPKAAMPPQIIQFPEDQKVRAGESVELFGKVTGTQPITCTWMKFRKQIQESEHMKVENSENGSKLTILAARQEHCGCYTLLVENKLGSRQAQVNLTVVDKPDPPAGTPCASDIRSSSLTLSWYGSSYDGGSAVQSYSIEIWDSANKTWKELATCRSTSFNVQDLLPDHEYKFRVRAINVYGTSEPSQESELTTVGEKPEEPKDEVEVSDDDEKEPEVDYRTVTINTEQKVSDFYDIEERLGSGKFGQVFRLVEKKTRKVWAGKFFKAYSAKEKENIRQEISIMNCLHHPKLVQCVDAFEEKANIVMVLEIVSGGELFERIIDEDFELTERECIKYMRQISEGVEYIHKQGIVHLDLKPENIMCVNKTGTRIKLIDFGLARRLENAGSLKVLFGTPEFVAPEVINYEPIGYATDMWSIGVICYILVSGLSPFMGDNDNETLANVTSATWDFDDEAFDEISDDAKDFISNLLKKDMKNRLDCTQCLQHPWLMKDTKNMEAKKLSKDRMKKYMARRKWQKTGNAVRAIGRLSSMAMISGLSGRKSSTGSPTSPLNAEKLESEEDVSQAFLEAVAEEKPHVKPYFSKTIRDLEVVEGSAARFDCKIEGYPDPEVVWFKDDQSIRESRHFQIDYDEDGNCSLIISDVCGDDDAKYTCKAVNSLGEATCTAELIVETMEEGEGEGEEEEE

For `COc1cc(Nc2c(C#N)cnc3cc(OCCCN4CCN(C)CC4)c(OC)cc23)c(Cl)cc1Cl` [Bosutinib, bosutinib], the remaining activity (in general, the signal under treatment as a percentage of the control signal) at 0.1 µM amounted to 101 ± 8% on CDK9-Cyclin T1; 75 ± 1% at TBK1; 78 ± 10% on ULK2; 92 ± 15% on IKK beta; 88 ± 2% on SmMLCK; 75 ± 9% on CLK2. The remaining activity at 1 µM at CDK9-Cyclin T1 is 125 ± 16%; at TBK1, 29 ± 1%; at ULK2, 37 ± 1%; at SmMLCK, 27 ± 1%; on CLK2, 23%.

On to `Cc1nc(Nc2ncc(C(=O)Nc3c(C)cccc3Cl)s2)cc(N2CCN(CCO)CC2)n1` [Dasatinib], for which the remaining activity at 0.1 µM amounted to 122 ± 8% at CDK9-Cyclin T1; 100 ± 1% on TBK1; 101 ± 3% at ULK2; 97 ± 21% on IKK beta; 111 ± 4% at SmMLCK; 120 ± 6% at CLK2. Moreover, the remaining activity at 1 µM at CDK9-Cyclin T1 was 138 ± 12%; at TBK1, 97 ± 10%; on ULK2 it was 91 ± 3%; at IKK beta (1 µM), 99 ± 9%; on SmMLCK, 111 ± 7%; at CLK2, 121 ± 6%.
